# Measured values reported in patent US5153180A, “Fluorinated nucleosides and process for treating retrovirus infections therewith” (priority 1990, dated 1992).
# Where two headings read alike, the source gives them in different places.
# Key:
# [1] = system: K-562 acute myeloic leukemia; experiment: Inhibition of proliferation of K-562 cells; assay type: cell-based; conditions: Homo sapiens
# Description: (§1) Originally FTdR was developed as a cytostatic agent (P. Langen et al., Acta biol. med. Germ. 23, 759, 1969; and U.S. Pat. No. 3,775,397) and, therefore, its cytostatic efficacy has been examined in extensive prior studies. […] Ehrlich-mouse-ascites-carcinoma cells (EMAC) represents an exception to that finding, and this is probably connected to its high capability of phosphorylation of FTdR, which is 10 times higher than in human cells. The fast reversibility of the cytostatic effects on EMAC cells was regarded as a special property of this compound (P. Langen et al., Europ. J. Cancer. 14. 349, 1978). The antiproliferative effect of FTdR and FddUrd, and in comparison thereto of N3 -TdR were tested on human cell lines with regard to a possible use in humans. […] When FTdR is compared to N3 -TdR. The effects are very similar, however somewhat lower in each case for N3 -TdR than for FTdR.
# (§2) CD50 : inhibitory dose required to reduce the cell number by 50%
# [2] = system: K-37 immortalized T-cells; experiment: Inhibition of proliferation of K-37 cells; assay type: cell-based; conditions: Homo sapiens, T-cell
# Description: as §1, §2
# [3] = AIDS patients treated; cited from earlier work
# [4] = system: HTLV-IIIB -infected H9 cells; conditions: 50 μm N3 -TdR, 24-hour incubation; cited from earlier work
# [5] = system: REH acute lymphatic leukemia; experiment: Inhibition of proliferation of REH cells; assay type: cell-based; conditions: Homo sapiens
# Description: as §1, §2
# HIV = experiment: Inhibition of the cytopathic effect of HIV on MT-4 cells; assay type: cell-based; conditions: for EC50: Human immunodeficiency virus 1, MT4, 144 h
# Experimental: (§3) Under in vitro conditions immortalized T-lymphocytes can be killed within few days by the cytopathic effect of HIV. […] For this purpose about 20,000 MT-4 cells (Harada et al. Science 229, 563 (1985)) Were infected with HIV (titer: 0.04 m.o.i.) and incubated in the presence or absence of varying concentrations of compounds according to formula I, with 10% fetal calf serum (FCS) in 200 μl RPMI medium. After 6 days of incubation the viable cells were counted that were excluded from trypan blue staining.
# H9 immortalized T-cells = experiment: Inhibition of proliferation of H9 cells; assay type: cell-based; conditions: Homo sapiens, T-cell
# Description: as §1, §2
# CEM (LAV-II) = experiment: Intracellular phosphorylation of 3H-FTdR in CEM (LAV-II) cells; assay type: in vitro ADME; conditions: 1/um 3H-FTdR, within 24 hours, Human CEM (LAV-II)
# Experimental: (§4) The critical factor for 3'-fluoro-substituted deoxynucleosides to reach a high intracellular efficiency is their ability to be phosphorylated in situ in the infected cells. […] By comparison, the phosphorylation of 50 μm N3 -TdR by HTLV-IIIB -infected H9 cells to the triphosphate during a 24-hour incubation has been reported to reach only 0.9 pmoles/10^6 cells and to be accompanied by an extreme accumulation of the monophosphate of N3 -TdR (460 pmoles/10^6 cells), reflecting a strong inhibition of the dTMP-kinase (Furman et al., Proc. Natl. Acad. Sci. U.S.A. 83 8333 (1986)) and entailing considerable alterations of the deoxynucleoside triphosphate substrate pools (Furman et al., loc. cit.) which affect cellular DNA synthesis.
# (§5) Synthesis of nucleotides from 1/um^3 H-FTdR (tritium labeled)
# (§6) in cells of various species within 24 hours.
# in vitro = conditions: human, mt-4 cells
# Experimental: as §3
# [6] = target: T1, thymidine-phosphorylase from human spleen (Homo sapiens, UniProt P19971); experiment: Phosphorolytic cleavage by thymidine-phosphorylase; assay type: in vitro ADME
# T1 construct: thymidine-phosphorylase from human spleen; from tissue; host or cells: human spleen
# T1 sequence (P19971 11-482): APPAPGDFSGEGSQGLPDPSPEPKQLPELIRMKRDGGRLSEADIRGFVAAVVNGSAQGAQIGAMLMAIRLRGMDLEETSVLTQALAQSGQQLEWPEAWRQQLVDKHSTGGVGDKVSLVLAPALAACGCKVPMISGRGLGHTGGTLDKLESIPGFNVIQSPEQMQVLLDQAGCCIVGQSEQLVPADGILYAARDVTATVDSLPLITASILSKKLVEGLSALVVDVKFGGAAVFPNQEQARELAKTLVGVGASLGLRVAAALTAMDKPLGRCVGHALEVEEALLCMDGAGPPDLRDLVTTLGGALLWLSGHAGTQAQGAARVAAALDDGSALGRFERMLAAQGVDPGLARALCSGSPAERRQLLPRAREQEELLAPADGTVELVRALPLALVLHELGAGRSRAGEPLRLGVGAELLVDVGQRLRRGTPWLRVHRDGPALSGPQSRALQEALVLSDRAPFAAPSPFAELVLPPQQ
# Description: Therefore FTdR, FddBrUrd and FddFUrd were investigated for their ability to be cleaved by thymidine-phosphorylase from human spleen.
# NRK-49F = experiment: Intracellular phosphorylation of 3H-FTdR in NRK-49F cells; assay type: in vitro ADME; conditions: 1/um 3H-FTdR, within 24 hours, Rat NRK-49F
# Experimental: as §4, §5, §6
# [7] = system: 9 different animal tumors; conditions: NCI program; cited from earlier work
# MT4 = experiment: Intracellular phosphorylation of 3H-FTdR in MT4 cells; assay type: in vitro ADME; conditions: 1/um 3H-FTdR, within 24 hours, Human MT4
# Experimental: as §4, §5, §6
# H9 (HTLV-IIIB) = experiment: Intracellular phosphorylation of 3H-FTdR in H9 (HTLV-IIIB) cells; assay type: in vitro ADME; conditions: 1/um 3H-FTdR, within 24 hours, Human H9 (HTLV-IIIB)
# Experimental: as §4, §5, §6
# [8] = system: Ehrlich-mouse-ascites-carcinoma cells (EMAC); conditions: cited from earlier work
# 3T3 = experiment: Intracellular phosphorylation of 3H-FTdR in 3T3 cells; assay type: in vitro ADME; conditions: 1/um 3H-FTdR, within 24 hours, Mouse 3T3
# Experimental: as §4, §5, §6
# [9] = system: Rauscher murine leukemia virus (RLV); experiment: Antiretroviral activity in mice infected with Rauscher murine leukemia virus; assay type: in vivo; conditions: for Reverse transcriptas serum / mean spleen weight: RLV +; for Reverse transcriptas serum: 100% = 66000 dpm, treatment discontinued 12 hours before
# Experimental: (§7) Therefore we examined the toxicity and antiretroviral activity of FTdR in mice infected with Rauscher murine leukemia virus. Different doses of FTdR were applied to BalB/c Han strain of mice in plain water for 20 days beginning 2-8 hours after RLV infection.
# [10] = Toxicity of continuous oral FTdR in mice
# Experimental: as §7
# [11] = oral 1.8 mg/kg/day, given for 24 days
# [12] = 6.5 mg/kg/day in drinking water for 20 days, RLV +
# [13] = 6.5 mg/kg/day in drinking water for 20 days, RLV -
# [14] = 69.0 mg/kg/day in drinking water for 20 days, RLV +
# [15] = 69.0 mg/kg/day in drinking water for 20 days, RLV -
smiles,measurement,setting,value
"Cc1cn([C@H]2C[C@H](N=[N+]=[N-])[C@@H](CO)O2)c(=O)[nH]c1=O [N3 -TdR, 3'-azido-2',3'-dideoxythymidine, reference compound]",IC50,"[1]; K562, read-out: CD50",50 µM
same,IC50,[2]; read-out: CD50,500 µM
same,patients requiring blood transfusions (toxic side effects on the bone marrow),[3],about 50%
same,accumulation of the monophosphate,[4],460 pmoles/10^6 cells
same,phosphorylation to the triphosphate,[4],0.9 pmoles/10^6 cells
same,IC50,[5]; read-out: CD50,220 µM
same,EC50,HIV; read-out: ED50,0.016 µM
same,IC50,H9 immortalized T-cells; read-out: CD50,800 µM
"Cc1cn([C@H]2C[C@H](F)[C@@H](CO)O2)c(=O)[nH]c1=O [FTdR, 2',3'-dideoxy-3'-fluorothymidine]",IC50,"[1]; K562, dose required to reduce the cell number by 50%, K-562, read-out: CD50 (the source's name)",45 µM
same,diphosphate (FdTDP),CEM (LAV-II),0.5 pmoles/106 cells
same,monophosphate (FdTMP),CEM (LAV-II),6.1 pmoles/106 cells
same,triphosphate (FdTTP),CEM (LAV-II),2.8 pmoles/106 cells
same,CC50 at 144 h,in vitro,1.1 µM
same,"metabolised at 3 h, 1000 µM",[6],3 to 8%
same,IC50,"[2]; dose required to reduce the cell number by 50%, K-37, read-out: CD50 (the source's name)",260 µM
same,diphosphate (FdTDP),NRK-49F,3.7 pmoles/106 cells
same,monophosphate (FdTMP),NRK-49F,3.5 pmoles/106 cells
same,triphosphate (FdTTP),NRK-49F,13.2 pmoles/106 cells
same,cytostatic effect,[7],only a weak cytostatic effect
same,diphosphate (FdTDP),MT4,1.6 pmoles/106 cells
same,monophosphate (FdTMP),MT4,9.9 pmoles/106 cells
same,triphosphate (FdTTP),MT4,5.6 pmoles/106 cells
same,IC50,"[5]; dose required to reduce the cell number by 50%, read-out: CD50 (the source's name)",160 µM
same,diphosphate (FdTDP),H9 (HTLV-IIIB),0.3 pmoles/106 cells
same,monophosphate (FdTMP),H9 (HTLV-IIIB),3.3 pmoles/106 cells
same,triphosphate (FdTTP),H9 (HTLV-IIIB),1.4 pmoles/106 cells
same,capability of phosphorylation of FTdR in EMAC versus human cells,[8],10 times
same,EC50,HIV; read-out: ED50 (the source's name),0.003 µM
same,antiviral activity of FTdR against N3 -TdR,"HIV; cellular test, ratio of ED50",5 times
same,IC50,"H9 immortalized T-cells; dose required to reduce the cell number by 50%, H9, read-out: CD50 (the source's name)",1000 µM
same,diphosphate (FdTDP),3T3,2.2 pmoles/106 cells
same,monophosphate (FdTMP),3T3,0.38 pmoles/106 cells
same,triphosphate (FdTTP),3T3,16.3 pmoles/106 cells
same,suppression of splenomegaly and viremia,[9]; 6.5 mg/kg/day,completely active in suppressing splenomegaly and viremia
same,Reverse transcriptas serum,[9]; 6.5 mg/kg/day for 20 days,0%
same,mean spleen weight,[9]; 6.5 mg/kg/day in drinking water for 20 days,192 mg
same,splenomegaly and RLV-associated reverse transcriptase activity in the serum,[9]; 69.0 mg/kg/day,completely suppresses
same,Reverse transcriptas serum,[9]; 69.0 mg/kg/day for 20 days,0%
same,mean spleen weight,[9]; 69.0 mg/kg/day in drinking water for 20 days,86 mg
same,development of RLV induced leukemia,"[9]; 69.0 mg/kg/day, continuous application for 20 days",able to prevent the development of a leukemia
same,suppression of serum reverse transcriptase activity,[9]; [11],more than 70%
same,suppression of splenomegaly,[9]; [11],more than 50%
same,signs of anemia and depression of white cell counts,[10]; 6.5 mg/kg/day,failed to produce signs of anemia and depression of white cell counts
same,Hemoglobin,[10]; [12],8.1 mmol/L
same,changes of body weight,[10]; [12],0%
same,Hemoglobin,[10]; [13],8.9 mmol/L
same,changes of body weight,[10]; [13],+1%
same,mean spleen weight,[10]; [13],125 mg
same,toxic side effects (hematological parameters),[10]; 69.0 mg/kg/day,toxic side effects are associated with this concentration range
same,Hemoglobin,[10]; [14],5.1 mmol/L
same,changes of body weight,[10]; [14],-10%
same,Hemoglobin,[10]; [15],4.3 mmol/L
same,changes of body weight,[10]; [15],-12%
same,mean spleen weight,[10]; [15],72 mg
